These results are taken from publication PMC3248963 (Bioorganic & medicinal chemistry letters, 2011).

As usually defined, the EC50 is the midpoint of the concentration-response curve. What is called IC50 is the concentration at which inhibition is half-maximal. The low end stands for inhibition by little substance, the high end for a need for much substance.

Where no end group is shown, it is not given here.

The subject of one data set is GLP1 receptor. The note with it: cited from earlier work.
Data set [1] concerns dipeptidyl peptidase 4 (DPP4). As to conditions: cited from earlier work.
The target in data set [2] is human GLP1 receptor (CHO-GLP1R cells) (Homo sapiens, UniProt P43220). The data set is described as follows: intracellular cAMP response assay, wild type receptor. Format: cell-based. The note with it: EC50 values.
In data set [3] the target is GLP1 receptor (CHO-GLP1R cell membranes) (Homo sapiens, UniProt P43220). The data set is described as follows: photoaffinity labeling of wild type receptor by radioiodinated Bpa-NRTFD.
For another data set, the target named is M397L GLP1 receptor (Homo sapiens, UniProt P43220, M397L). The data set is described as follows: intracellular cAMP response assay, M397L mutant receptor. The class given is cell-based.
M397L GLP1 receptor, sequence (P43220 24-463 M397L): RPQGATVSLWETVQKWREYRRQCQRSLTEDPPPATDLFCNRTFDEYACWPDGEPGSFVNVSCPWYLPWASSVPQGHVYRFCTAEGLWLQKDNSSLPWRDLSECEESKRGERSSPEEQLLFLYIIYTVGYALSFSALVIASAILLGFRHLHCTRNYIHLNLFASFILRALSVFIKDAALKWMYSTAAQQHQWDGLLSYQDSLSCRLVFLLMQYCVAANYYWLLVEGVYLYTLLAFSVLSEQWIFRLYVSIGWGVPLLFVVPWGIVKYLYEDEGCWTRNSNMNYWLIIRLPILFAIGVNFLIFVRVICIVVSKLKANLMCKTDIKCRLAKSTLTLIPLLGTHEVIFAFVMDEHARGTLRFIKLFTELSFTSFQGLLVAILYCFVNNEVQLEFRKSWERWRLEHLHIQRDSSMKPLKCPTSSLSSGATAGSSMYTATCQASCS

human GLP1 receptor (CHO-GLP1R cells), sequence (P43220 24-463): as the sequence (P43220 24-463 M397L) above, with L374M counted along it
GLP1 receptor (CHO-GLP1R cell membranes), sequence (P43220 24-463): as the sequence (P43220 24-463 M397L) above, with L374M counted along it

For the molecule `CC[C@H](C)[C@H](NC(=O)[C@H](Cc1ccccc1)NC(=O)[C@H](CCC(=O)O)NC(=O)[C@H](CCCCN)NC(=O)[C@H](C)NC(=O)[C@H](C)NC(=O)[C@H](CCC(N)=O)NC(=O)CNC(=O)[C@H](CCC(=O)O)NC(=O)[C@H](CC(C)C)NC(=O)[C@H](Cc1ccc(O)cc1)NC(=O)[C@H](CO)NC(=O)[C@H](CO)NC(=O)[C@@H](NC(=O)[C@H](CC(=O)O)NC(=O)[C@H](CO)NC(=O)[C@@H](NC(=O)[C@H](Cc1ccccc1)NC(=O)[C@@H](NC(=O)CNC(=O)[C@H](CCC(=O)O)NC(=O)[C@H](C)NC(=O)[C@@H](N)Cc1c[nH]cn1)[C@@H](C)O)[C@@H](C)O)C(C)C)C(=O)N[C@@H](C)C(=O)N[C@@H](Cc1c[nH]c2ccccc12)C(=O)N[C@@H](CC(C)C)C(=O)N[C@H](C(=O)N[C@@H](CCCCN)C(=O)NCC(=O)N[C@@H](CCCNC(=N)N)C(N)=O)C(C)C` [GLP1], the “blockade of agonist action by high affinity peptide antagonist” value in the data set on GLP1 receptor is on record as “competitively blocked”. In addition, in data set [1], the “degradation by DPP4” value was “rapidly degraded”.

Regarding NRTFD [NRTFD], the EC50 in data set [2] came to 1600 ± 500 nM; at M397L GLP1 receptor, 2200 ± 800 nM. The molecule further had an IC50 in data set [3] of 3100 ± 800 nM.
